Data taken from patent US20250101032A1, “EXATECAN DERIVATIVES AND ANTIBODY-DRUG CONJUGATES THEREOF” (priority 2021, published 2025).
In brackets after ≈: the same amount, converted by molar mass.

Legend:
NCI-N87 = test: In vitro cytotoxicity assay (CellTiter-Glo), NCI-N87; format: cell-based, Human; conditions: Homo sapiens, NCI-N87, 144 h, read-out: Cytotoxicity IC50
Protocol: (§1) Human tumor cell lines, SK-BR-3, NCI-H292, HT-29, MCF-7, NCI-N87, and FaDu were obtained from ATCC. NCI-H292, HT-29, MCF-7, and NCI-N87 cells were cultured in RPMI-1640 media (Gibco, Life Technologies) supplemented with 10% v/v heat inactivated FBS (Corning), FaDu cells were maintained in DMEM media (Gibco, Life Technologies) supplemented with 10% v/v heat inactivated FBS (Corning). SK-BR-3 cells were maintained in McCoys 5A medium (Gibco, Life Technologies) supplemented with 10% […] heat inactivated FBS (Corning) at 37° C. in a humidified incubator containing 5% CO2.
(§2) Lyophilized compounds were dissolved in 100% dry DMSO, aliquots frozen and stored at −80° C. Concentration and purity of compound stock solutions in DMSO were determined by RP-HPLC Agilent 1100 platform with 1200 DAD and SofTA ELSD detectors, and the Agilent 6150 MS system (UV/VIS, ELSD purity and MS compound identity confirmation). Shimadzu 3.0 mm×30 mm XR ODS 2.2 μm column was run at 50° C., 1.5 mL/min. Solvent A: 0.1% Formic acid in water, Solvent B: 0.08% Formic acid in methanol-Gradient: 5%-100% B in 3.0 min, 100% solvent B for 0.3 min. Concentration of compounds in 100% DMSO determined by ELS ranged from 1-6 mM.
(§3) Cells were plated in 96-well white flat-bottomed plates (Corning) at 2.0×10^3 cells per well in 100 μL culture medium. After incubation for 24 hours, test compounds were added at a range of concentrations as ten point serial dilution as duplicates or triplicates. Following further incubation for 6 days 37° C., 5% CO2, cell viability was assessed with the use of a CellTiter-Glo Luminescent Cell Viability Assay (Promega). Luminescence was measured using the GloMax instrument (Promega). […] For a subset of payloads, each treatment was independently repeated two to eight times, and IC50 values were averaged. […] Standard deviation (stdev) is shown as (N/A) for treatment performed once.

HT29 = test: In vitro cytotoxicity assay (CellTiter-Glo), HT29; format: cell-based, Human; conditions: Homo sapiens, HT-29, 144 h, read-out: Cytotoxicity IC50
Protocol: as §1, §2, §3

SKBR3 = test: In vitro cytotoxicity assay (CellTiter-Glo), SKBR3; format: cell-based, Human; conditions: Homo sapiens, SK-BR-3, 144 h, read-out: Cytotoxicity IC50
Protocol: as §1, §2, §3

MCF7 = test: In vitro cytotoxicity assay (CellTiter-Glo), MCF7; format: cell-based, Human; conditions: Homo sapiens, MCF7, 144 h, read-out: Cytotoxicity IC50
Protocol: as §1, §2, §3

NCI-H292 = test: In vitro cytotoxicity assay (CellTiter-Glo), NCI-H292; format: cell-based, Human; conditions: Homo sapiens, NCI-H292, 144 h, read-out: Cytotoxicity IC50
Protocol: as §1, §2, §3

physchem = conditions: 25 °C, pH 7.4, aqueous buffer, kinetic from dmso stock
Protocol: In-vitro kinetic solubilities of the compounds in PBS pH 7.4 buffer at 25° C. were determined by diluting compounds from 100% dimethyl sulfoxide (DMSO) into PBS buffer and measuring absorbance at 490, 590 and 650 nm. Stock concentrations in 100% DMSO were provided at 1-6 mM in 100% DMSO. Kinetic solubilities were determined by diluting test compounds from 100% DMSO into PBS pH 7.4 buffer, as duplicate, 10 point 2-fold serial dilution starting at 100× dilution of stock DMS solution into PBS buffer in a clear, flat bottom polystyrene assay plates. Total assay volume was 200 microliters. Solutions were mixed by plate shaking, incubated for 30 m at 25° C., and absorbance was read at 490, 590 and 650 nm. […] in PBS buffer was used as a blank. For each test compound, average optical density (GD) at each concentration was determined by averaging the blank corrected sum of absorption at 490 nm, 590 nm and 650 nm, over duplicate measurements. Turbidity threshold optical density value was set as a sum of mean plus two standard deviations of the mean of absorbances at 490, 590 and 650 nm for 1% (v/v) DMSO in PBS pH 7.4 buffer. Highest soluble concentration (micromolar) corresponded to the highest concentration at which average optical density was below optical density value set for turbidity threshold (Table 4). Amiodarone and propranolol were used as low and high solubility controls respectively.

FaDu = test: In vitro cytotoxicity assay (CellTiter-Glo), FaDu; format: cell-based, Human; conditions: Homo sapiens, FaDu, 144 h, read-out: Cytotoxicity IC50
Protocol: as §1, §2, §3

SKOV3 = test: In vitro cytotoxicity assay (CellTiter-Glo), SKOV3; format: cell-based; conditions: Homo sapiens, SK-OV-3, 144 h, read-out: Cytotoxicity IC50
Protocol: (§4) Lyophilized compounds were dissolved in 100% dry DMSO, aliquots frozen and stored at −80° C. […] Shimadzu 3.0 mm×30 mm XR ODS 2.2 μm column was run at 50° C., 1.5 mL/min. Solvent A: 0.1% Formic acid in water, Solvent B: 0.08% Formic acid in methanol-Gradient: 5%-100% B in 3.0 min, 100% solvent B for 0.3 min.
as §3

BXPC3 = test: In vitro cytotoxicity assay (CellTiter-Glo), BXPC3; format: cell-based; conditions: Homo sapiens, BXPC-3, 144 h, read-out: Cytotoxicity IC50
Protocol: as §4, §3

| SMILES | IC50 (NCI-N87) | IC50 (HT29) | IC50 (SKBR3) | IC50 (MCF7) | IC50 (NCI-H292) | solubility at 30 min (physchem) | IC50 (FaDu) | IC50 (SKOV3) | IC50 (BXPC3) |
| --- | --- | --- | --- | --- | --- | --- | --- | --- | --- |
| CC[C@@]1(O)C(=O)OCc2c1cc1n(c2=O)Cc2c-1nc1cc(F)c(C)c3c1c2[C@@H](NC(=O)c1cc(O)[nH]n1)CC3 [Compound 166] | 410 nM | 663 nM | 118 nM | 162 nM | 322 nM | 22 µM (≈ 12 µg/mL) | 93.8 nM | – | – |
| CC[C@@]1(O)C(=O)OCc2c1cc1n(c2=O)Cc2c-1nc1cc(F)c(C)c3c1c2[C@@H](NC(=O)C12CC(O)(C1)C2)CC3 [Compound 79] | 15.5 nM | 31.7 nM | 5.9 nM | 9.8 nM | 14 nM | – | 2.3 nM | 25.3 nM | 5.5 nM |
| CC[C@@]1(O)C(=O)OCc2c1cc1n(c2=S)Cc2c-1nc1cc(F)c(C)c3c1c2[C@@H](N)CC3 [Compound 107] | 0.2 nM | 0.4 nM | 0.1 nM | 0.2 nM | 0.6 nM | 15 µM (≈ 6.77 µg/mL) | 0.1 nM | – | – |
| CC[C@@]1(O)C(=O)OCc2c1cc1n(c2=O)Cc2c-1nc1cc(F)c(C)c3c1c2[C@@H](NC(=O)C1CC(O)C1)CC3 (stereo partly shown) [Compound 58] | 49.4 nM | 177 nM | 12.1 nM | 32 nM | 60.5 nM | – | 6.3 nM | – | – |
| CC[C@@]1(O)C(=O)OCc2c1cc1n(c2=O)Cc2c-1nc1cc(F)c(C)c3c1c2[C@@H](NC(=O)C1(O)COC1)CC3 [Compound 159] | 22.4 nM | 64.2 nM | 5.8 nM | 9.8 nM | 21.6 nM | 27 µM (≈ 14.5 µg/mL) | 2 nM | – | – |
| CC[C@@]1(O)C(=O)OCc2c1cc1n(c2=O)Cc2c-1nc1cc(F)c(C)c3c1c2[C@@H](NCCOCCO)CC3 [Compound 147] | 8.5 nM | 7.1 nM | 2.7 nM | 3.1 nM | 9.4 nM | 21 µM (≈ 11 µg/mL) | 3 nM | – | – |
| CC[C@@]1(O)C(=O)OCc2c1cc1n(c2=S)Cc2c-1nc1cc(F)c(C)c3c1c2[C@@H](NC(=S)[C@H]1C[C@@H]1CO)CC3 [Compound 175-B] | 1.5 nM | 1.6 nM | 0.5 nM | 0.6 nM | 1.5 nM | – | 0.3 nM | – | – |
| CC[C@@]1(O)C(=O)OCc2c1cc1n(c2=S)Cc2c-1nc1cc(F)c(C)c3c1c2[C@@H](NC(=O)CO)CC3 [Compound 106] | 0.9 nM | 1.1 nM | 0.4 nM | 0.2 nM | 0.4 nM | – | – | – | – |
| CC(C)NCC(O)COc1cccc2ccccc12 (stereo not shown) [Propranolol, propranolol, reference compound] | – | – | – | – | – | 100 µM (≈ 25.9 µg/mL) | – | – | – |
| CC[C@@]1(O)C(=O)OCc2c1cc1n(c2=O)Cc2c-1nc1cc(F)c(C)c3c1c2[C@@H](NC(=O)[C@H]1C[C@H]1CO)CC3 (single isomer, unassigned) [Compound 111-B] | 5.2 nM | 6.3 nM | 2.1 nM | 3.8 nM | 4.5 nM | 30 µM (≈ 16 µg/mL) | 1.1 nM | – | – |
